Marks after values point to notes of the source that are not given here.
Key:
Format in all cases: in vivo, Sprague-Dawley (SD) rats
[1] = tested on: CCl4 induced liver injury in rats; assay: Serum indicators of liver function (ALT, AST, cholesterol); details: CCl4-treated rats, 8 weeks
Description: (§1) The animal model was performed with five-week-old Sprague-Dawley (SD) rats purchased from BioLasco Taiwan Co., Ltd. Healthy rats weighing 220-270 g were chosen for experiment after observing for 2 weeks in the laboratory animal room. The rats were randomly divided into 6 groups (12 rats/group): normal (gp. A); control groups including model control (gp. B) and positive control (gp. C, animals receiving silymarin); treatment groups including animals receiving 300 mg/kg of cyclohexenone (gp. D), 1000 mg/kg of cyclohexenone (gp. E), and 3000 mg/kg of cyclohexenone (gp. F), as indicated in Table 1. Only normal group was not poisoned with CCl4. The body weights were recorded to calculate the dosage. […] It helps to remove toxins from liver cells by either neutralizing the toxicity of toxic compounds or competing with the binding sites in liver. It is a potent antioxidant, protects the liver from free radicals. It has been widely studied for treating various types of liver injury in animals and clinical trials. The beneficial effects on liver protection have made silymarin a good medicine for liver diseases and a drug in positive control group for the animal model of liver injury.
(§2) Rats in normal group (group A) were fed with corn oil (Sigma chemical co.) by means of stomach tubes. Carbon tetrachloride (Shimakyu, Osaka, Japan) was administered to groups B to F via stomach tubes twice weekly (every Tuesday and Thursday afternoon) for 8 weeks, at a dose of 2 ml/kg of body weight, diluted with corn oil. Silymarin was prepared with saline in an amount of 200 mg/kg of body weight and was fed to rats of group C via a stomach tube. Cyclohexenone prepared from example 1 was mixed with saline, and fed in the amounts of 300 mg/kg, 1000 mg/kg and 3000 mg/kg of body weight to rats of group D to F via stomach tubes. The total feeding volume was estimated in the ratio of 10 ml/kg of body weight to groups C to F five days a week (every morning) for 8 weeks. The body weights of rats and the amounts of food intake in rats for each group were shown in FIG. 1 and FIG. 2, respectively.
All rats were sacrificed at the end of the 8th week of experiment, blood samples were collected from abdominal aorta for assessing liver biochemical parameters. Five ml of blood were transferred to a tube and centrifuged at 775×g for 15 min. 0.5 ml of serum was analyzed on an Express plus automatic clinical chemistry analyzer (Chiron diagnostics corporation, OH, USA) with commercial kits of ALT (Bayer diagnostics, Cat No. E36941), AST (Bayer diagnostics, Cat No. E37041) and cholesterol (Bayer diagnostics, Cat No. E33940). All values are expressed as mean ±SD, which were evaluated using One-way Analysis of Variance. Those with significant differences were further tested with the Least Significant Difference Test (LSD) or Student t-test to compare cyclohexenone treatment groups and normal groups, positive control and model groups. P<0.05 was selected as criterion for statistical significance in all cases.

[2] = tested on: CCl4-induced liver injury in rats; assay: Pathological changes of the liver surface observed with naked eyes; details: CCl4-treated rats, 8 weeks
Description: as §1, with “The beneficial effects on liver protection have made silymarin a good medicine for liver diseases and a drug in positive control group for the animal model of liver injury.” left out
The pathological changes of the liver surface were examined with naked eyes when the liver was taken out from rats, and then tissue sections were made. […] The pathological changes of liver injury were evaluated under light microscope (Opticphot-2, Nikon, Tokyo, Japan) after stained with the abovementioned solution. […]

[3] = tested on: CCl4 induced liver injury in rats; assay: Histological evaluation of liver injury (H&E, Jonker et al. 0-4 scale); details: for Liver injury score: 0-4 scale, CCl4-treated rats, 8 weeks; for Liver injury +, counts of pathological rats: level 1 = +, slight; for Liver injury ++, counts of pathological rats: level 2 = ++, mild; for Liver injury +++, counts of pathological rats: level 3 = +++, moderate; for Liver injury ++++, counts of pathological rats: level 4 = ++++, remarkable
Description: as §1, §2
The pathological changes of the liver surface were examined with naked eyes when the liver was taken out from rats, and then tissue sections were made. Half of each liver lobe was stored at −80° C. for antioxidant enzyme assay to follow up. The rest of liver tissues were fixed in 10% formalin for one week, embedded in paraffin cut into 2 μm sections, and stained with Hematoxyline-eosin (H&E) to visualize the lipid deposition, inflammation, cell necrosis and fibrosis, or stained with Masson's trichromic solution to visualize extracellular matrix and collagen fibers for liver fibrosis development. The pathological changes of liver injury were evaluated under light microscope (Opticphot-2, Nikon, Tokyo, Japan) after stained with the abovementioned solution.
Assessment of pathologic score in the chronic liver damage, the extent of inflammation, vacuolar degeneration, liver cell necrosis and bile duct proliferation were graded semi-quantitatively on a “0” to “4” scale (level 0=−, none, level 1=+, slight, level 2=++, mild, level 3=+++, moderate, and level 4=++++, remarkable, according to Jonker et al. (Jonker, A. M., Dijkhuis, F. W., Boes, A., Hardonk, M. J. and Grond J. 1992. Immunohistochemical study of extracellular matrix in acute galactosamine hepatitis in rats. Hepatology. 15(3):423-31).

[4] = tested on: CCl4-induced liver injury in rats; assay: Weights of liver, kidney and spleen relative to body weight after CCl4-induced liver injury; details: CCl4-treated rats, 8 weeks
Description: as §1, §2
All rats were sacrificed at the end of the 8th week of experiment. The weights of liver, kidney and spleen were recovered and weighted and compared with the body weights to calculate the ratios and observe the effects of cyclohexenone from Antrodia camphorata to CCl4 treatment. All values are expressed as mean ±SD, which were evaluated using One-way Analysis of Variance. Those with significant differences were further tested with the Least Significant Difference Test (LSD) or Student t-test to compare cyclohexenone treatment groups and normal groups, positive control and model groups. P<0.05 was selected as criterion for statistical significance in all cases.

[5] = cyclohexenone 1000 mg/kg, listed as cyclohexenone

COC1=C(OC)C(O)C(C/C=C(\C)CC/C=C(\C)CCC=C(C)C)C(C)C1=O (stereo not drawn) [Cyclohexenone from Antrodia camphorata, 4-hydroxy-2,3-dimethoxy-6-methyl-5(3,7,11-trimethyl-dodeca-2,6,10-trienyl)-cyclohex-2-enone]
ALT ([1]; cyclohexenone 300 mg/kg): 226.6 ± 138.7 a U/L | AST ([1]; cyclohexenone 300 mg/kg): 323.4 ± 189.0 U/L | Cholesterol ([1]; cyclohexenone 300 mg/kg): 63.7 ± 15.1 mg/dL | ALT ([1]; cyclohexenone 1000 mg/kg): 181.7 ± 78.4 a U/L | AST ([1]; cyclohexenone 1000 mg/kg): 283.2 ± 144.2 U/L | Cholesterol ([1]; cyclohexenone 1000 mg/kg): 69.6 ± 14.8 mg/dL | ALT [1, 5]: 181.7±78.4 U/L | AST [1, 5]: 283.2±144.2 U/L | ALT ([1]; cyclohexenone 3000 mg/kg): 206.0 ± 98.4 a U/L | AST ([1]; cyclohexenone 3000 mg/kg): 311.7 ± 99.6 U/L | Cholesterol ([1]; cyclohexenone 3000 mg/kg): 62.1 ± 16.2 mg/dL | swelling and pathological conditions of liver surface (naked eyes) ([2]; cyclohexenone 3000 mg/kg): slightest condition in swelling and pathological conditions | extents of liver pathological changes (liver surface, naked eyes) ([2]; various amounts of cyclohexenone (300, 1000, 3000 mg/kg), vs model group): significantly weaker than that of model group | Liver injury score ([3]; cyclohexenone 300 mg/kg): 1.8*^a | Liver injury score ([3]; cyclohexenone 300 mg/kg, listed as cyclohexenone from Antrodia camphorata): 1.8 | Liver injury score ([3]; cyclohexenone 1000 mg/kg): 2.0*^a | Liver injury score ([3]; cyclohexenone 1000 mg/kg, listed as cyclohexenone from Antrodia camphorata): 2.0 | Liver injury score ([3]; cyclohexenone 3000 mg/kg): 2.3*^a | effects in liver injury and liver fibrosis compared with silymarin ([3]; CCl4 treated rats fed with different amount of cyclohexenone (300, 1000, 3000 mg/kg)): better effects than silymarin | Liver injury +, counts of pathological rats ([3]; cyclohexenone 300 mg/kg): 5 | Liver injury +, counts of pathological rats ([3]; cyclohexenone 1000 mg/kg): 3 | Liver injury +, counts of pathological rats ([3]; cyclohexenone 3000 mg/kg): 2 | Liver injury ++, counts of pathological rats ([3]; cyclohexenone 300 mg/kg): 6 | Liver injury ++, counts of pathological rats ([3]; cyclohexenone 1000 mg/kg): 6 | Liver injury ++, counts of pathological rats ([3]; cyclohexenone 3000 mg/kg): 6 | Liver injury +++, counts of pathological rats ([3]; cyclohexenone 1000 mg/kg): 1 | Liver injury +++, counts of pathological rats ([3]; cyclohexenone 3000 mg/kg): 1 | Liver injury ++++, counts of pathological rats ([3]; cyclohexenone 300 mg/kg): 1 | Liver injury ++++, counts of pathological rats ([3]; cyclohexenone 1000 mg/kg): 1 | Liver injury ++++, counts of pathological rats ([3]; cyclohexenone 3000 mg/kg): 2 | kidney to body weight ratio ([4]; cyclohexenone 300 mg/kg): 0.68 ± 0.06 % | liver to body weight ratio ([4]; cyclohexenone 300 mg/kg): 3.29 ± 0.35% | spleen to body weight ratio ([4]; cyclohexenone 300 mg/kg): 0.20 ± 0.05 % | kidney to body weight ratio ([4]; cyclohexenone 1000 mg/kg): 0.69 ± 0.13% | liver to body weight ratio ([4]; cyclohexenone 1000 mg/kg): 3.20 ± 0.47 % | spleen to body weight ratio ([4]; cyclohexenone 1000 mg/kg): 0.22 ± 0.06 % | kidney to body weight ratio ([4]; cyclohexenone 3000 mg/kg): 0.73 ± 0.08 % | liver to body weight ratio ([4]; cyclohexenone 3000 mg/kg): 3.65 ± 0.53 % | spleen to body weight ratio ([4]; cyclohexenone 3000 mg/kg): 0.30 ± 0.10 %
